Measurements as given in article PMC8911181, “A Novel CDK4/6 and PARP Dual Inhibitor ZC-22 Effectively Suppresses Tumor Growth and Improves the Response to Cisplatin Treatment in Breast and Ovarian Cancer” (International Journal of Molecular Sciences, 2022).

Tests used:
γH2A.X = experiment: Immunofluorescence staining of γH2A.X foci; type: cell-based, human; settings: MDA-MB-231 (2 μM) and OVCAR5 (0.5 μM) cells; 24 h
Experimental: Immunofluorescence-staining of γH2A.X was performed as described before. Briefly, cells were seeded on cover glasses in 24-well plates, cultured for 24–48 h, and then treated with cisplatin alone or together with Olaparib or ZC-22 for 24 h. After washing with PBS, cells were fixed by 4% PFA, permeated with 0.5% Triton-X100 in PBS, washed thrice with 0.1% PBS-Tween (PBST), blocked with 3% BSA in PBST, and then incubated with anti-γH2A.X antibody overnight at 4 °C. […] At least 150 cells in three fields were counted for each repeat.
Figure 3 ZC-22 inhibits CDK4/6 and PARP to induce cell-cycle arrest, DNA damage, and apoptosis in breast and ovarian cancer cells. […] The levels of CDK4/6 and p-Rb/Rb were determined by Western blot (A). Cell-cycle distribution was analyzed by flow cytometry (B). […] (D,E) Representative pictures (left) and quantification of percentage (right) of γH2A.X-positive cells in MDA-MB-231 cells treated with 2 μM OLA or ZC-22 for 24 h (D), or OVCAR5 cells treated with 0.5 μM OLA or ZC-22 for 24 h (E). Values are means ± SD, n = 3. * p < 0.05, ** p < 0.01, and *** p < 0.001 for comparisons with the DMSO-treated group. p value was calculated using an unpaired t-test. […] Values are means ± SD, n = 3. * p < 0.05, ** p < 0.01, and *** p < 0.001 vs. the DMSO-treated group. p value was calculated using an unpaired t-test. […]

[1] = Body weight and histological analysis (H&E) of major organs, MDA-MB-231 tumor-bearing mice; type: in vivo; settings: ZC-22 monotherapy 50 mg/kg ip
Experimental: To detect the safety of ZC-22 monotherapy or combination therapy, sections of mouse heart, liver, spleen, lung, and kidney tissues were stained with hematoxylin and eosin (H&E) and then analyzed by microscopy.
Figure S3. ZC-22 inhibits signaling of CDK4/6 and PARP in xenograft tumors of breast cancer. Female NOD-SCID mice were injected subcutaneously with 2×10^6 of MDA-MB-231 cells and treated ip daily with 50 mg/kg of Olaparib (OLA) or LY2835219 (LY-2) alone or together (OLA+LY-2), or ZC-22 starting on day 10 after injection of cells when tumors were 50–80 mm3 in size. Representative pictures of (A) and quantification of percentage of (B) phosphorylated Rb (p-Rb)-positive cells in immunohistochemical staining of the MDA-MB-231 xenograft tumor tissues. Values are means ± SEM, n = 6. ns, not significant, and *** p < 0.001 in the unpaired t-test. (C) Western blot analysis of p-Rb (Left) and PAR (Right) in the MDA-MB-231 xenograft tumor tissues with indicated treatment.
(D) Body weights of MDA-MB-231 tumor burden mice with indicated treatment. Values are means ± SD, n = 6. ns, not significant in unpaired t-test. (E) H&E staining of the heart, liver, spleen, lung, and kidney tissues of tumor-bearing mice treated with DMSO or ZC-22, showing the lack of toxicity of ZC-22 treatment.
Figure S4. ZC-22 increases the sensitivity of breast and ovarian cancer cells to cisplatin. […]

## Cc1nc2c(F)cc(-c3nc(Nc4ccc(N5CCN(C(=O)c6cc(Cc7n[nH]c(=O)c8ccccc78)ccc6F)CC5)cn4)ncc3F)cc2n1C(C)C [ZC-22, 4-(4-fluoro-3-(4-(6-((5-fluoro-4-(4-fluoro-1-isopropyl-2-methyl-1H-benzo[d]imidazole-6-yl)pyrimidin-2-yl)amino)pyridin-3-yl)piperazine-1-carbonyl)benzyl)phthalazin-1(2H)-one]
γH2A.X
  formation of γH2A.X foci: notably induced formation of γH2A.X foci
[1]
  toxicity (body weight, histology of major organs): no obvious toxicity
